# Source: patent US12256735B2, “Insecticidal combinations” (UPL LTD, priority 2018, dated 2025)
# What was measured:
# Lucinodes arbonalis = assay: Trial of efficacy on Lucinodes arbonalis in Brinjal; type: in vivo
# Protocol: Trials were conducted to test the efficacy of the combination of Chlorantraniliprole+Bifenthrin+Bifenazate on Lucinodes arbonalis in Brinjal: […]
# mites in Brinjal = assay: Trial of efficacy on mites in Brinjal; type: in vivo
# Protocol: Trials were conducted to test the efficacy of the combination of Chlorantraniliprole+Bifenthrin+Bifenazate on mites in Brinjal: […]
smiles,measurement,setting,value
Cc1c(COC(=O)[C@@H]2[C@H](/C=C(\Cl)C(F)(F)F)C2(C)C)cccc1-c1ccccc1 (racemic) [Bifenthrin],% mortality 3 DAA,Lucinodes arbonalis; dose 40 gm. ai/ha,55%
same,% mortality 7 DAA,Lucinodes arbonalis; dose 40 gm. ai/ha,65%
same,% mortality 10 DAA,Lucinodes arbonalis; dose 40 gm. ai/ha,53%
same,% mortality 14 DAA,Lucinodes arbonalis; dose 40 gm. ai/ha,41%
same,% mortality 3 DAA,mites in Brinjal; dose 40 gm. ai/ha,75%
same,% mortality 7 DAA,mites in Brinjal; dose 40 gm. ai/ha,80%
same,% mortality 10 DAA,mites in Brinjal; dose 40 gm. ai/ha,75%
same,% mortality 14 DAA,mites in Brinjal; dose 40 gm. ai/ha,65%
COc1ccc(-c2ccccc2)cc1NNC(=O)OC(C)C [Bifenazate],% mortality 3 DAA,Lucinodes arbonalis; dose 150 gm. ai/ha,9.9%
same,% mortality 7 DAA,Lucinodes arbonalis; dose 150 gm. ai/ha,12%
same,% mortality 10 DAA,Lucinodes arbonalis; dose 150 gm. ai/ha,10.9%
same,% mortality 14 DAA,Lucinodes arbonalis; dose 150 gm. ai/ha,7.9%
same,% mortality 3 DAA,mites in Brinjal; dose 150 gm. ai/ha,65%
same,% mortality 7 DAA,mites in Brinjal; dose 150 gm. ai/ha,95.1%
same,% mortality 10 DAA,mites in Brinjal; dose 150 gm. ai/ha,85%
same,% mortality 14 DAA,mites in Brinjal; dose 150 gm. ai/ha,75%
CNC(=O)c1cc(Cl)cc(C)c1NC(=O)c1cc(Br)nn1-c1ncccc1Cl [Chlorantraniliprole],% mortality 3 DAA,Lucinodes arbonalis; dose 30 gm. ai/ha,80%
same,% mortality 7 DAA,Lucinodes arbonalis; dose 30 gm. ai/ha,90.1%
same,% mortality 10 DAA,Lucinodes arbonalis; dose 30 gm. ai/ha,89.1%
same,% mortality 14 DAA,Lucinodes arbonalis; dose 30 gm. ai/ha,79%
same,% mortality 3 DAA,mites in Brinjal; dose 30 gm. ai/ha,9.9%
same,% mortality 7 DAA,mites in Brinjal; dose 30 gm. ai/ha,8.9%
same,% mortality 10 DAA,mites in Brinjal; dose 30 gm. ai/ha,7.9%
same,% mortality 14 DAA,mites in Brinjal; dose 30 gm. ai/ha,10.9%
